Values joined by “and” are separate entries in the source; they are usually repeats but may differ in a detail not shown here. Identical values can stand only once. Counter-ions that a name gives are not always drawn.
Legend:
[1] = system: patients with RRMS and evidence of active disease; experiment: EMPhASIS Cohort 2 interim analysis: MRI lesions up to Week 12; format: in vivo, human; conditions: for Cumulative number of New Gd+ lesions up to Week 12, Mean / Cumulative number of CUA MRI lesions up to Week 12, Mean / Patients without CUA MRI lesions over 12 weeks / Patients without New Gd+ lesions over 12 weeks: mFAS; for Cumulative number of New Gd+ lesions up to Week 12, Mean: placebo 3.5; for Cumulative number of CUA MRI lesions up to Week 12, Mean: placebo 4.4; for Patients without CUA MRI lesions over 12 weeks: placebo 41.4; for Patients without CUA MRI lesions over 12 weeks / Patients without New Gd+ lesions over 12 weeks: listed as IMU-838; for Patients without New Gd+ lesions over 12 weeks: placebo 49.3
[2] = Pre-clinical, clinical and single and multiple-dose Phase 1 studies: safe daily dose; format: in vivo; conditions: once daily
[3] = system: patients with relapsing-remitting multiple sclerosis; experiment: EMPhASIS Cohort 1: annualized relapse rate and time-to-first relapse; format: in vivo, human; conditions: for adjusted mean annualized relapse rate: baseline until week 24
Experimental: Other secondary endpoints included: the difference in the cumulative number of combined unique active lesions up to week 24 between vidofludimus calcium 45 mg and vidofludimus calcium 30 mg; number or cumulative number of gadolinium-enhancing, T1, or T2 lesions up to 24 weeks; annualized relapse rate from baseline until week 24; proportion of relapse-free patients up to week 24; time-to-first relapse; change in EDSS score from baseline; proportion of patients with EDSS score progression; brain atrophy and other MRI endpoints; and safety and tolerability as assessed by the investigators. Annualized relapse rate was defined as the total number of confirmed relapses divided by the real exposure time in years assessed over the time during the double-blind treatment period. EDSS progression was defined as an increase compared to baseline of at least 1.0 point for patients with a baseline EDSS score of 1.0 to 4.0 or of at least 1.5 points for patients with a baseline EDSS score of 0. Vidofludimus calcium trough concentrations (weeks 6 and 24) were used to assess the correlation between pharmacokinetics and MRI-based assessments. The effects of vidofludimus calcium on serum neurofilament (baseline and week 24) were also analyzed. All other secondary efficacy analyses were reported using descriptive statistics and were considered exploratory. The mean number or cumulative number of gadolinium-enhancing (Gd+), T1, or T2 lesions were summarized descriptively and analyzed with a generalized linear model as described earlier but adjusted for MRI field strength and baseline number of gadolinium-enhancing lesions only. Annualized relapse rate was compared between treatment groups and between the pooled vidofludimus calcium groups and placebo using a generalized linear model adjusted for baseline number of gadolinium-enhancing lesions, which included the offset term for real exposure time. Time-to-first relapse up to 24 weeks was analyzed using a Cox proportional hazards model, with covariates for treatment group and baseline gadolinium-enhancing lesions strata. The proportion of patients free of relapse was estimated using the Kaplan-Meier method. Statistical analyses were done using SAS version 9.4 (SAS Institute, Cary, NC, USA).

[4] = system: neurofilament light chain in serum; experiment: EMPhASIS: change in serum neurofilament light chain; format: in vivo, human; conditions: for Median change in neurofilament light chain in serum from baseline to week 24: placebo 6.5%
Experimental: Other secondary endpoints included: the difference in the cumulative number of combined unique active lesions up to week 24 between vidofludimus calcium 45 mg and vidofludimus calcium 30 mg; number or cumulative number of gadolinium-enhancing, T1, or T2 lesions up to 24 weeks; annualized relapse rate from baseline until week 24; proportion of relapse-free patients up to week 24; time-to-first relapse; change in EDSS score from baseline; proportion of patients with EDSS score progression; brain atrophy and other MRI endpoints; and safety and tolerability as assessed by the investigators. Annualized relapse rate was defined as the total number of confirmed relapses divided by the real exposure time in years assessed over the time during the double-blind treatment period. EDSS progression was defined as an increase compared to baseline of at least 1.0 point for patients with a baseline EDSS score of 1.0 to 4.0 or of at least 1.5 points for patients with a baseline EDSS score of 0. Vidofludimus calcium trough concentrations (weeks 6 and 24) were used to assess the correlation between pharmacokinetics and MRI-based assessments. The effects of vidofludimus calcium on serum neurofilament (baseline and week 24) were also analyzed.
Based on pre-clinical and clinical studies and the single and multiple-dose Phase 1 studies with IMU-838, daily doses of IMU-838 of up to 50 mg once daily are considered safe. […] A post-hoc analysis from EMPhASIS study (see Example 1 and 2) in the non-relapse active subgroup of rrMS patients was conducted. […] Change in mean EDSS from baseline to Week 24 in a non-relapse active subgroup of rrMS patients (patients without relapse between baseline and Week 24).

[5] = system: T-lymphocyte proliferation; conditions: in vitro; cited from earlier work

In the case of `COc1cccc(-c2ccc(NC(=O)C3=C(C(=O)O)CCC3)c(F)c2)c1` [vidofludimus calcium, 1-cyclopentene-1-carboxylic acid, 2-(((3-fluoro-3′-methoxy(1,1′-biphenyl)-4-yl)amino)carbonyl)-, calcium salt (2:1)], the “suppression of Gd+ lesions at Week 12 compared with placebo” value ([1]; 10 mg) is reported as 40%, the “Cumulative number of New Gd+ lesions up to Week 12, Mean” value (shortened to “Cumulative number of New Gd+ lesions up”) ([1]; 10 mg (C2)) is reported as 2.0 and the “suppression of CUA lesions at Week 12 compared with placebo” value ([1]; 30 mg) is reported as 68%. The “suppression of Gd+ lesions at Week 12 compared with placebo” value ([1]; 30 mg) was 66%, the “Cumulative number of New Gd+ lesions up” value ([1]; 30 mg (C1)) was 1.2 and the “Cumulative number of CUA MRI lesions up to Week 12, Mean” value ([1]; 30 mg (C1)) was 1.4. For the same compound, the “Patients without CUA MRI lesions over 12 weeks” value ([1]; 30 mg (C1)) was 62% and 61.5%, the “Patients without New Gd+ lesions over 12 weeks” value ([1]; 30 mg (C1)) was 66% and 66.2% and the “suppression of CUA lesions at Week 12 compared with placebo” value ([1]; 45 mg) was 75%. For the same compound, the “suppression of Gd+ lesions at Week 12 compared with placebo” value ([1]; 45 mg) was 74%, the “Cumulative number of New Gd+ lesions up” value ([1]; 45 mg (C1)) was 0.9 and the “Cumulative number of CUA MRI lesions up to Week 12, Mean” value ([1]; 45 mg (C1)) was 1.1. For the same compound, the “Patients without CUA MRI lesions over 12 weeks” value ([1]; 45 mg (C1)) was 55% and 54.5%, the “Patients without New Gd+ lesions over 12 weeks” value ([1]; 45 mg (C1)) was 61% and 60.6% and the “daily dose considered safe” value [2] was “up to 50 mg”. For the same compound, the “adjusted mean annualized relapse rate” value ([3]; 30 mg once daily) was 0.39 (95% Cl 0.22-0.69), the “hazard ratio for relapse up to 24 weeks” value ([3]; 30 mg vs placebo) was 0.58 (95% Cl: 0.26-1.29) and the “rate ratio, annualized relapse rate” value ([3]; 30 mg vs placebo) was 0.72 (95% Cl 0.34-1.55). For the same compound, the “adjusted mean annualized relapse rate” value ([3]; 45 mg once daily) was 0.48 (95% Cl 0.28-0.82), the “hazard ratio for relapse up to 24 weeks” value ([3]; 45 mg vs placebo) was 0.78 (95% Cl: 0.37-1.59) and the “rate ratio, annualized relapse rate” value ([3]; 45 mg vs placebo) was 0.90 (95% Cl 0.44-1.86). For the same compound, the “Median change in neurofilament light chain in serum from baseline to week 24” value ([4]; 30 mg once daily) was −17.0%, the “decrease in serum neurofilament light chain (NfL), dose comparison” value ([4]; 45 mg dose, FIG. 3A) was “greater decrease” and the “Median change in neurofilament light chain in serum from baseline to week 24” value ([4]; 45 mg once daily) was −20.5%. For the same compound, the T-lymphocyte proliferation [5] was “inhibited”.

— patent US12433860B2, “Treatment of multiple sclerosis comprising DHODH inhibitors” (Immunic AG, priority 2021, dated 2025)
